The values below come from patent US7563924B2, “9-chloro-15-deoxyprostaglandin derivatives, process for their preparation and their use as medicaments” (Schering Aktiengesellschaft, priority 2005, dated 2009).

Structures are written as SMILES.

This test has as its system TNFα release from activated monocytic cells. In words: Cytokine release assay in vitro (TNFα, ELISA). The class given is cell-based, human. Particulars: 1 μM, 18 hours. The protocol:
Human donor monocyte-derived dendritic cells are cultured in RPMI-1640 containing 10% fetal bovine serum for six days in the presence of 10 ng/mL IL-4 and 200 ng/mL GM-CSF. The cells are activated with various activation stimuli: 10 ng/mL LPS (Sigma), 5 μg/mL recombinant human CD-40 ligand (R&D Systems), or 5 μM Human CpG-DNA (HyCult Biotechnology) in the presence of prostaglandin E2 (PGE2) (1 μM), vehicle control (DMSO) or test substances (1 μM) for 18 hours. The levels of cell culture supernatant TNFα for individual donors is measured by commercial ELISA kits.

As to `CCCCC[C@H](O)/C=C/[C@H]1[C@H](O)CC(=O)[C@@H]1C/C=C\CCCC(=O)O` [PGE2, Prostaglandin E2], the TNFα by setting is: (CD40 ligand, Donor 3) 147.9 pg/mL; (CD40 ligand, Donor 4) 87.0 pg/mL; (CD40 ligand, Donor 6) 54.2 pg/mL; (CpG, Donor 1) 104.5 pg/mL; (CpG, Donor 3) 70.0 pg/mL; (CpG, Donor 6) 106.2 pg/mL. Moreover, the TNFα turned out to be 0.0 pg/mL (LPS, Donor 4) and 174.8 pg/mL (LPS, Donor 6).
